Data taken from ChEMBL document CHEMBL5247613, “Design, synthesis and biological evaluation of a new class of Hsp90 inhibitors vibsanin C derivatives” (Eur J Med Chem, 2022).
Active and inactive are the calls of the source. No cut-off for these calls is given here.

Tests used:
[1] = tested on: Reticulocyte; assay: Inhibition of HSP90 in rabbit reticulocyte lysates at 10 uM incubated for 3 hrs by denatured luciferase refolding assay; type: subcellular; conditions: Oryctolagus cuniculus
[2] = Inhibition of HSP90 in rabbit reticulocyte lysates incubated for 3 hrs by denatured luciferase refolding assay; type: subcellular, Oryctolagus cuniculus
[3] = tested on: HL-60; assay: Antiproliferative activity against human HL-60 cells assessed as reduction in cell viability incubated for 48 hrs by MTT assay; type: functional, cell-based; conditions: HL-60, 48 h
[4] = tested on: A549; assay: Antiproliferative activity against human A549 cells assessed as reduction in cell viability incubated for 48 hrs by MTT assay; type: functional, cell-based; conditions: A549, 48 h
[5] = tested on: SMMC-7721; assay: Antiproliferative activity against human SMMC-7721 cells assessed as reduction in cell viability incubated for 48 hrs by MTT assay; type: functional, cell-based; conditions: SMMC-7721, 48 h
[6] = tested on: MCF7; assay: Antiproliferative activity against human MCF7 cells assessed as reduction in cell viability incubated for 48 hrs by MTT assay; type: functional, cell-based; conditions: MCF7, 48 h
[7] = tested on: SW480; assay: Antiproliferative activity against human SW480 cells assessed as reduction in cell viability incubated for 48 hrs by MTT assay; type: functional, cell-based; conditions: SW480, 48 h
[8] = tested on: Reticulocyte; assay: Inhibition of HSP90 in rabbit reticulocyte lysates at 500 uM incubated for 3 hrs by denatured luciferase refolding assay; type: subcellular; conditions: Oryctolagus cuniculus
[9] = molecular target: T1, Heat shock protein HSP90 (Homo sapiens) (UniProt P07900+P08238); assay: Inhibition of HSP90 in human HL-60 cells assessed as increase in HSP27 protein expression incubated for 24 hrs by western blot analysis; type: cell-based; conditions: dose 1-10 µM
[10] = molecular target: T1, Heat shock protein HSP90 (Homo sapiens); assay: Inhibition of HSP90 in human HL-60 cells assessed as decrease in CDK4 protein expression incubated for 24 hrs by western blot analysis; type: cell-based; conditions: dose 1-10 µM
[11] = molecular target: T1, Heat shock protein HSP90 (Homo sapiens); assay: Binding affinity to full length HSP90 (unknown origin) expressed in Escherichia coli BL21(DE3) cells at 20 uM by NMR STD assay

SMILES | inhibition [1] | other results
CC(C)=CCC[C@@]1(C)CC=C(Cn2ccnc2)c2oc(C)cc2[C@@H]1/C=C/OC(=O)C=C(C)C | 37.1% | –
CC(=O)C[C@@H]1C(=O)C(CO)=CC[C@](C)(CCC2OC2(C)C)[C@H]1/C=C/OC(=O)C=C(C)C (stereo partly specified) | 36.6% | –
CC(C)=CCC[C@@]1(C)CC=C(CO)C(=O)[C@H]2C[C@@](C)(O)[C@@H](C=O)[C@@H]21 | 13.3% | –
CC(=O)C[C@@H]1C(=O)C(CN2CCOCC2)=CC[C@](C)(CCC=C(C)C)[C@H]1/C=C/OC(=O)C=C(C)C | 14.2% | –
CC(C)=CCC[C@@]1(C)CC=C(CCl)c2oc(C)cc2[C@@H]1/C=C/OC(=O)C=C(C)C | 32.6% | –
CC(=O)C[C@@H]1C(=O)C(CO)=CC[C@](C)(CCC=C(C)C)[C@H]1/C=C/OC(=O)C=C(C)C | 30% | –
CC(=O)C[C@@H]1C(=O)C(CN2CCN(C(C)C)CC2)=CC[C@](C)(CCC=C(C)C)[C@H]1/C=C/OC(=O)C=C(C)C | 23.8% | –
CC(=O)C[C@@H]1C(=O)C(COC(C)=O)=CC[C@](C)(CCC=C(C)C)[C@H]1/C=C/OC(=O)C=C(C)C | 34.9% | –
CC(=O)C[C@@H]1C(=O)C(CO)=CC[C@](C)(CCC(=O)C(C)C)[C@H]1/C=C/OC(=O)C=C(C)C | 0.69% | –
CC(=O)C[C@@H]1C(=O)C(COC(=O)c2cc(Cl)ccc2N)=CC[C@](C)(CCC=C(C)C)[C@H]1/C=C/OC(=O)C=C(C)C | 61.8% | IC50 [2]: 4.09 µM
CC(C)=CCC[C@@]1(C)CC=C(C=O)c2[nH]c(C)c(Cl)c2[C@@H]1/C=C/OC(=O)C=C(C)C | 45% | –
CC(C)=CCC[C@@]1(C)CC=C(CO)[C@H]2O[C@](C)(O)C[C@H]2[C@@H]1/C=C/OC(=O)C=C(C)C | 14.2% | –
CO[C@@H]1[C@@H](OC(N)=O)[C@@H](O)[C@H](Oc2ccc3c(O)c(NC(=O)c4ccc(O)c(CC=C(C)C)c4)c(=O)oc3c2C)OC1(C)C [NOVOBIOCIN] | – | inhibition [8]: 78.9%; IC50 [2]: 468 µM
CC(C)=CCC[C@]1(C)/C=C/[C@@H](OC(=O)C=C(C)C)[C@](C)(O)/C=C/C(=O)/C(CN2CCN(C)CC2)=C\C1 | 93.6% | IC50 [2]: 0.98 µM
CC(C)=CCC[C@@]1(C)CC=C(CO)c2oc(C)cc2[C@@H]1/C=C/OC(=O)C=C(C)C | 82.3% | –
CC(=O)C[C@@H]1C(=O)C(CCl)=CC[C@](C)(CCC=C(C)C)[C@H]1/C=C/OC(=O)C=C(C)C | 53.1% | –
CC(C)=CCC[C@@]1(C)CC=C(CN2CCOCC2)c2[nH]c(C)cc2[C@@H]1/C=C/OC(=O)C=C(C)C | 6.37% | –
CC(=O)C[C@@H]1C(=O)C(COC(=O)c2ccccc2)=CC[C@](C)(CCC=C(C)C)[C@H]1/C=C/OC(=O)C=C(C)C | 36.9% | –
CC(=O)C[C@@H]1C(=O)C(CS)=CC[C@](C)(CCC=C(C)C)[C@H]1/C=C/OC(=O)C=C(C)C | 0.32% | –
CC(=O)C[C@@H]1C(=O)C(CF)=CC[C@](C)(CCC=C(C)C)[C@H]1/C=C/OC(=O)C=C(C)C | 84.3% | IC50 [2]: 4.1 µM
CC(=O)C[C@@H]1C(=O)C(COC(=O)CCC(=O)O)=CC[C@](C)(CCC=C(C)C)[C@H]1/C=C/OC(=O)C=C(C)C | 66.8% | IC50 [2]: 7.52 µM
CC(=O)O[C@H]1C(=O)[C@@]2(C)[C@H]([C@H](OC(=O)c3ccccc3)[C@]3(O)C[C@H](OC(=O)[C@H](O)[C@@H](NC(=O)c4ccccc4)c4ccccc4)C(C)=C1C3(C)C)[C@]1(OC(C)=O)CO[C@@H]1C[C@@H]2O [PACLITAXEL] | – | IC50 [3]: < 0.008 µM; IC50 [4]: < 0.008 µM; IC50 [5]: 0.097 µM; IC50 [6]: < 0.008 µM; IC50 [7]: < 0.008 µM
CC(=O)C[C@@H]1C(=O)C(COC(=O)C2CCCCC2)=CC[C@](C)(CCC=C(C)C)[C@H]1/C=C/OC(=O)C=C(C)C | 40.3% | –
CC(=O)C[C@@H]1C(=O)[C@H](CO)CC[C@](C)(CCCC(C)C)[C@H]1/C=C/OC(=O)C=C(C)C | 22.8% | –

Second part, led by results:

inhibition [1] | SMILES | other results
13.1% | CC(C)=CCC[C@@]1(C)CC=C(CNc2ccc(F)cc2)c2oc(C)cc2[C@@H]1/C=C/OC(=O)C=C(C)C | –
20.1% | CC(C)=CCC[C@@]1(C)CC=C(CN2CCN(C(C)C)CC2)c2nnc(C)cc2[C@@H]1/C=C/OC(=O)C=C(C)C | –
77.8% | CC(C)=CCC[C@@]1(C)CC=C(CF)c2nnc(C)cc2[C@@H]1/C=C/OC(=O)C=C(C)C | IC50 [2]: 0.37 µM; IC50 [3]: 3.45 µM; IC50 [4]: 20.5 µM; IC50 [5]: 15.7 µM; IC50 [6]: 17.6 µM; IC50 [7]: 18.2 µM
50.8% | CC(C)=CCC[C@@]1(C)CC=C(COC(=O)c2ccc3cc[nH]c3c2)c2[nH]c(C)cc2[C@@H]1/C=C/OC(=O)C=C(C)C | –
85.9% | CC(C)=CCC[C@@]1(C)CC=C(CCl)c2nnc(C)cc2[C@@H]1/C=C/OC(=O)C=C(C)C | IC50 [2]: 2.37 µM
10.6% | CC(C)=CCC[C@@]1(C)CC=C(CO)c2[nH]c(C)cc2[C@@H]1/C=C/OC(=O)C=C(C)C | –
23.6% | CC(C)=CCC[C@@]1(C)CC=C(CO)c2nnc(C)cc2[C@@H]1/C=C/OC(=O)C=C(C)C | –
57% | CC(C)=CCC[C@@]1(C)CC=C(COC(=O)CCC(=O)Nc2ccc(F)cc2)c2oc(C)cc2[C@@H]1/C=C/OC(=O)C=C(C)C | –
71% | CC(C)=CCC[C@@]1(C)CC=C(COC(=O)CCC(=O)O)c2[nH]c(C)cc2[C@@H]1/C=C/OC(=O)C=C(C)C | IC50 [2]: 6.05 µM
64.5% | CC(=O)C[C@@H]1C(=O)C(CNc2ccc(F)cc2)=CC[C@](C)(CCC=C(C)C)[C@H]1/C=C/OC(=O)C=C(C)C | –
48% | CC(C)=CCC[C@@]1(C)CC=C(COC(=O)CCC(=O)Nc2ccc(F)cc2)c2[nH]c(C)cc2[C@@H]1/C=C/OC(=O)C=C(C)C | –
54.1% | CC(C)=CCC[C@@]1(C)CC=C(COC(=O)CCC(=O)Nc2ccc(F)cc2)c2nnc(C)cc2[C@@H]1/C=C/OC(=O)C=C(C)C | –
49.3% | CC(C)=CCC[C@@]1(C)CC=C(CNc2ccc(F)cc2)c2nnc(C)cc2[C@@H]1/C=C/OC(=O)C=C(C)C | –
88.2% | CC(C)=CCC[C@@]1(C)CC=C(COC(=O)CCC(=O)O)c2oc(C)cc2[C@@H]1/C=C/OC(=O)C=C(C)C | IC50 [2]: 0.27 µM; IC50 [3]: 16.9 µM; IC50 [4]: > 40 µM; IC50 [5]: > 40 µM; IC50 [6]: > 40 µM; IC50 [7]: > 40 µM; inhibition [9]: Dose-Dependent Effect; inhibition [10]: Dose-Dependent Effect; Activity [11]: Active
94.6% | CC(C)=CCC[C@@]1(C)CC=C(COC(=O)CCC(=O)O)c2nnc(C)cc2[C@@H]1/C=C/OC(=O)C=C(C)C | IC50 [2]: 0.27 µM; IC50 [3]: > 40 µM; IC50 [4]: > 40 µM; IC50 [5]: > 40 µM; IC50 [6]: > 40 µM; IC50 [7]: > 40 µM
42.9% | CC(C)=CCC[C@@]1(C)CC=C(COC(=O)c2ccc3cc[nH]c3c2)c2oc(C)cc2[C@@H]1/C=C/OC(=O)C=C(C)C | –
68.8% | CC(C)=CCC[C@@]1(C)CC=C(CF)c2[nH]c(C)cc2[C@@H]1/C=C/OC(=O)C=C(C)C | IC50 [2]: 3.61 µM
66.6% | CC(C)=CCC[C@@]1(C)CC=C(COC(=O)c2ccc3cc[nH]c3c2)c2nnc(C)cc2[C@@H]1/C=C/OC(=O)C=C(C)C | IC50 [2]: 4.57 µM
